Reference: ChEMBL document CHEMBL3585323, “Effect of intercalator substituent and nucleotide sequence on the stability of DNA- and RNA-naphthalimide complexes” (Bioorg Med Chem, 2015)
Active and inactive are the calls of the source. No cut-off for these calls is given here.

Experiments:
[1] = tested on: Nucleic Acid; experiment: Induction of DNA intercalation using 5'-r(GCGCGCGC)2-3' at 250 uM by UV-vis spectrophotometric analysis; assay type: nucleic-acid assay
[2] = tested on: Nucleic Acid; experiment: Induction of DNA intercalation using 5'-d(GTCCGCGGAC)2-3' at 250 uM by UV-vis spectrophotometric analysis; assay type: nucleic-acid assay
[3] = tested on: Nucleic Acid; experiment: Induction of DNA intercalation using 5'-d(ATATAGTATATA)-3'/5'-(TATATACTATAT)-3' at 250 uM by UV-vis spectrophotometric analysis; assay type: nucleic-acid assay
[4] = Binding affinity to 5'-d(ATATAGTATATA)-3'/5'-(TATATACTATAT)-3' DNA assessed as change in melting temperature at 1:1 DNA to compound molar ratio by spectrophotometric analysis
[5] = Binding affinity to 5'-d(GTAATATTAC)2-3' DNA assessed as change in melting temperature at 1:1 DNA to compound molar ratio by spectrophotometric analysis
[6] = tested on: Nucleic Acid; experiment: Induction of DNA intercalation using 5'-d(GCGCGCGC)2-3' at 250 uM by UV-vis spectrophotometric analysis; assay type: nucleic-acid assay
[7] = Binding affinity to 5'-r(GCGCGCGC)2-3' DNA assessed as change in melting temperature at 1:1 DNA to compound molar ratio by spectrophotometric analysis
[8] = tested on: Nucleic Acid; experiment: Induction of DNA intercalation using 5'-d(ATATATATATAT)2-3' at 250 uM by UV-vis spectrophotometric analysis; assay type: nucleic-acid assay
[9] = tested on: Nucleic Acid; experiment: Induction of DNA intercalation using 5'-r(GUCCGCGGAC)2-3' at 250 uM by UV-vis spectrophotometric analysis; assay type: nucleic-acid assay
[10] = Binding affinity to 5'-d(GCGCGCGC)2-3' DNA assessed as change in melting temperature at 1:1 DNA to compound molar ratio by spectrophotometric analysis
[11] = tested on: Nucleic Acid; experiment: Induction of DNA intercalation using 5'-d(GTAATATTAC)2-3' at 250 uM by UV-vis spectrophotometric analysis; assay type: nucleic-acid assay
[12] = Binding affinity to 5'-d(GTCCGTCGGAC)-3'/5'-(GTCCGACGGAC)-3' DNA assessed as change in melting temperature at 1:1 DNA to compound molar ratio by spectrophotometric analysis
[13] = Binding affinity to 5'-d(ATATATATATAT)2-3' DNA assessed as change in melting temperature at 1:1 DNA to compound molar ratio by spectrophotometric analysis
[14] = tested on: Nucleic Acid; experiment: Induction of DNA intercalation using 5'-d(ATATATGATATA)-3'/5'-(TATATCATATAT)-3' at 250 uM by UV-vis spectrophotometric analysis; assay type: nucleic-acid assay
[15] = tested on: Nucleic Acid; experiment: Induction of DNA intercalation using 5'-d(GTCCGTCGGAC)-3'/5'-(GTCCGACGGAC)-3' at 250 uM by UV-vis spectrophotometric analysis; assay type: nucleic-acid assay
[16] = Binding affinity to 5'-d(GTCCGCGGAC)2-3' DNA assessed as change in melting temperature at 1:1 DNA to compound molar ratio by spectrophotometric analysis
[17] = Binding affinity to 5'-r(GUCCGCGGAC)2-3' DNA assessed as change in melting temperature at 1:1 DNA to compound molar ratio by spectrophotometric analysis
[18] = Binding affinity to 5'-d(ATATATGATATA)-3'/5'-(TATATCATATAT)-3' DNA assessed as change in melting temperature at 1:1 DNA to compound molar ratio by spectrophotometric analysis
[19] = tested on: Nucleic Acid; experiment: Induction of DNA intercalation using 5'-d(CGATCG)2-3' at 1:0.5 DNA to compound molar ratio by NMR analysis; assay type: nucleic-acid assay
[20] = tested on: Nucleic Acid; experiment: Induction of DNA intercalation using 5'-d(CGATCG)2-3' by NMR analysis; assay type: nucleic-acid assay
[21] = tested on: Nucleic Acid; experiment: Induction of DNA intercalation using 5'-d(GTCCGCGGAC)2-3' at 1:0, 1:0.5, 1:1, 1:1.5, 1:2 DNA to compound molar ratio by CD spectroscopic analysis; assay type: nucleic-acid assay

SMILES | Activity [1] | Activity [2] | Activity [3] | ΔTm [4] [°C] | ΔTm [5] [°C] | Activity [6] | ΔTm [7] [°C] | Activity [8] | Activity [9] | ΔTm [10] [°C] | Activity [11] | ΔTm [12] [°C] | ΔTm [13] [°C] | Activity [14] | Activity [15] | ΔTm [16] [°C] | ΔTm [17] [°C] | ΔTm [18] [°C] | further results
CN(C)CCN1C(=O)c2cccc3cc(O)cc(c23)C1=O | Active | Active | Active | 5.7 | 4.4 | Active | 0 | Active | Active | 1.6 | Active | 2.2 | 0 | Active | Active | 1.6 | 0 | 14.7 | 
CN(C)CCN1C(=O)c2cccc3cc(N)cc(c23)C1=O | Active | Active | Active | 10.1 | 11.6 | Active | 1.1 | Active | Active | 16.9 | Active | 0 | 0 | Active | Active | 5.1 | 1 | 14.6 | Activity [19]: Active
Cc1cc2c3c(cccc3c1)C(=O)N(CCN(C)C)C2=O | Active | Active | Active | 0 | 0 | Active | 0 | Active | Active | 3.2 | Active | 0 | 0 | Active | Active | 2.7 | 0 | 5.1 | 
CC(C)Nc1cc2c3c(cccc3c1)C(=O)N(CCN(C)C)C2=O | Active | Active | Active | 0 | 7.3 | Active | 0 | Active | Active | 7.9 | Active | 2.1 | 0 | Active | Active | 0 | 1.1 | 16.4 | 
CN(C)CCN1C(=O)c2cccc3cc([N+](=O)[O-])cc(c23)C1=O | Active | Active | Active | 11.7 | 12.6 | Active | 1.8 | Active | Active | 14.3 | Active | 5 | 0 | Active | Active | 13.3 | 2.2 | 17.2 | Activity [20]: Active; Activity [21]: Active
CN(C)CCN1C(=O)c2cccc3cc(I)cc(c23)C1=O | Active | Active | Active | 1.7 | 4.4 | Active | 0 | Active | Active | 2.5 | Active | 0 | 0 | Active | Active | 0 | 0 | 8.4 | 
CN(C)CCN1C(=O)c2cccc3cc(Cl)cc(c23)C1=O | Active | Active | Active | 0 | 4.5 | Active | 0 | Active | Active | 6.3 | Active | 0 | 0 | Active | Active | 1.1 | 0 | 7 | 
CN(C)CCN1C(=O)c2cccc3cccc(c23)C1=O | Active | Active | Active | 11.6 | 8.1 | Active | 0 | Active | Active | 8.7 | Active | 0 | 0 | Active | Active | 5.6 | 0 | 19.4 | 
CN(C)CCN1C(=O)c2cccc3cc(Br)cc(c23)C1=O | Active | Active | Active | 10.8 | 6.3 | Active | 1.6 | Active | Active | 9.5 | Active | 0 | 0 | Active | Active | 6 | 2 | 13.9 | 
CN(C)CCN1C(=O)c2cccc3cc(-c4ccccc4)cc(c23)C1=O | Active | Active | Active | 5.8 | 0 | Active | 0 | Active | Active | 0 | Active | 0 | 0 | Active | Active | 0 | 0 | 1.3 | 
CC(=O)Nc1cc2c3c(cccc3c1)C(=O)N(CCN(C)C)C2=O | Active | Active | Active | 4.7 | 8.6 | Active | 0 | Active | Active | 4.6 | Active | 0 | 0 | Active | Active | 5.6 | 0 | 8.8 | 
